Reference: patent US10695446B2, “Composition and method for detecting hypoxia” (Vanderbilt University, priority 2015, dated 2020)
Where a name gives a salt, the structure may show the parent alone.

How the values were obtained:
R28 cells [1] = assay: Cell viability assay (BrdU incorporation), R28 cells; assay type: cell-based, rat; conditions: R28, 0-100 μM, 24 h
Experimental: (§1) Retinal cell-lines were treated with HYPDX-4 (100 μM) and the viability was measured using the bromodeoxyUridine (BrdU) incorporation assay according to the manufacturers protocol. Briefly, retinal cells were seeded in a 96-well plate for twenty four hours and serum starved for 6 hours. Then, cells were treated with HYPDX-4 and vehicle controls diluted in complete media and allowed to incubate for 24 h. Four hours prior to the end of the incubation, BrdU was added at a concentration of 10 μM and incorporation of BrdU was quantified by ELISA with the BrdU cell viability ELISA kit (Exalpha Biologicals; Shirley, Mass.).

retina of RA mice = assay: Electroretinography (ERG) measurements; assay type: in vivo, mouse; conditions: 100 mg/kg systemic, dark-adapted mice, 7 days post administration, various flash intensities
Experimental: ERG measurements were performed according to previously published methods.^32,33 Briefly, ERG analysis was performed on mice injected with HYPDX-4 (100 mg/kg) at one week post-injection. Animals were dark adapted overnight, anesthetized with ketamine/xylazine, dilated with 1% tropicamide, and placed on a warm platform within the Ganzfeld dome of a Diagnosys LLC Espion Electrophysiology system (Lowell, Mass., USA). Mice were exposed to flashes of light ranging from −4 to 2 log cd·s/m^2 and the amplitudes of a-wave and b-wave were measured from baseline to peak. The amplitude of the a-wave and b-wave were plotted as a function of luminance.

R28 cells [2] = assay: In vitro imaging of R28 cells using HYPDX-4; assay type: cell-based, rat
Experimental: R28 cells were seeded at a density of 45,000 cells per well in 3 wells of 4-well chamber slides. When cells were 90% confluent, 2 wells were treated with HYPDX-4 in complete medium, and one well was treated with pimonidazole hydrochloride diluted in complete medium. The cells were cultured in hypoxia or normoxia for 4 hours. Cells were washed 3 times with HBSS, fixed with 10% neutral buffered formalin (NBF) for 10 minutes at room temperature, washed 3 times with TBS and mounted with Prolong Gold with DAPI mounting media. Pimonidazole-adducts were immunostained according to manufacturer's protocol. HYPDX-4 dependent fluorescence images were taken using an epifluorescence microscope.

[3] = system: retinal hypoxia, oxygen-induced retinopathy (OIR) mice; assay: Imaging of retinal hypoxia in the mouse OIR model; assay type: in vivo
Experimental: Mouse pups and their dams were placed in 75% oxygen from P7 to P12 according to the OIR oxygen treatment protocol.^27 On P12, litters were removed to room air and after 2 hours, HYPDX-4 (60 mg/kg in PBS) was administered by intraperitoneal injection. Twenty-four hours post-injection, in vivo HYPDX-4-dependent fluorescence imaging was performed. Briefly, mice were anesthetized with ketamine/xylazine, eyes were dilated with 1% tropicamide and placed on a warm platform, and fluorescent and bright field fundus images were acquired using the Micron IV retinal-imaging system (Phoenix Research Laboratories; Pleasanton, Calif.). Then, ex vivo imaging of HYPDX-4 dependent fluorescence was performed. The mice were sacrificed, enucleated, and the globes were fixed in 10% neutral buffered formalin (NBF). Retinas were dissected and stained directly with Alexa Fluor 647-conjugated isolectin B4 then flat-mounted on a microscope slide with Prolong Gold mounting medium (Life Technologies, Grand Island, N.Y.). Images were captured using an epifluorescence ‘Nikon Eclipse Ti-E’ inverted microscope (Melville, N.Y.).
Some mice received intraperitoneal injections of pimonidazole hydrochloride at a concentration of 60 mg/kg body weight two hours after removal to the room air; they were sacrificed and enucleated one hour later. The globes were fixed in 10% NBF for 2 hours; retinas were dissected and washed with tris-buffered saline (TBS), then they were blocked/permeabilized in 10% donkey serum with 1% Triton X-100/0.05% Tween 20 in TBS for 6 hours, and stained with an antibody against pimonidazole-adducts followed by the secondary anti-rabbit IgG conjugated to Alexa Fluor 647- and Alexa Fluor 488-conjugated isolectin B4. The retinas were mounted on microscope slides with Prolong Gold mounting medium. Ex vivo images were captured using an epifluorescence ‘Nikon Eclipse Ti-E’ inverted microscope.

MIO-M1 cells [4] = assay: Cell viability assay (BrdU incorporation), MIO-M1 cells; assay type: cell-based, human; conditions: MIO-M1, 0-100 μM, 24 h
Experimental: as §1

[5] = system: retinal hypoxia, laser-induced retinal vein occlusion (RVO) mice; assay: Imaging of retinal hypoxia in the mouse RVO model; assay type: in vivo; conditions: for pattern of retinal hypoxia image in RVO retina: HYPDX-4-dependent imaging versus pimonidazole-adduct immunostaining, 60 mg/kg i.p.
Experimental: Laser-induced retinal vein occlusion was performed as previously described.^31 Briefly, C57BL/6 female mice were anesthetized by intraperitoneal injection of ketamine/xylazine and the eyes were dilated using 1% tropicamide. A phosphate buffered solution of 39.31 mM rose bengal (4,5,6,7-tetrachloro-2′,4′,5′,7′-tetraiodo-fluorescein disodium salt, certified purity, 95%; Sigma, St. Louis, Mo.) was sterilized by passage through a 0.22-μm filter, and tail vein injected at a dose of 40 mg/kg. An argon laser photocoagulator (green light) mounted on a slit-lamp (Space Coast Laser Inc. Palm Bay, Fla.) was used to create retinal vein-occlusion (50-μm spot size, 1-second duration, 50 mW). Three laser applications were required to completely stop the blood flow as determined by observing the fundus image with a slit-lamp microscope. In each fundus, only one or two veins was/were photocoagulated to create retinal ischemia. Two hours post-RVO, mice were divided into two groups and received intraperitoneal injection of the HYPDX-4 (60 mg/kg body weight) or pimonidazole hydrochloride (60 mg/kg body weight). Twenty-two hours post-injection of HYPDX-4, in vivo HYPDX-4 dependent fluorescence imaging was performed. The mice were anesthetized with ketamine/xylazine, dilated with 1% tropicamide, and placed on a warm platform; TRITC-Dextran 500 (Sigma, St. Louis, Mo.) was injected systemically at a dose of 20 mg/kg; and fluorescent and bright field fundus images were acquired using the Micron IV retinal-imaging system. Mice were sacrificed, enucleated and the globes were fixed in 10% NBF. HYPDX-4-dependent fluorescence was imaged ex vivo as previously described in the OIR section. For the pimonidazole hydrochloride-injected group, the animals were sacrificed one hour after injection, enucleated and the globes were fixed in 10% NBF. The retinas were processes and ex vivo images were captured as described above for mouse OIR.

[6] = In vitro stability (photostability) in solution, kinetic fluorescence; assay type: physicochemical; conditions: phosphate buffer, 100 nM, 37° C., ex 490 nm / em 520 nm
Experimental: HYPDX-4 was dissolved in phosphate buffer at a concentration of 100 nM and fluorescence was monitored at excitation maximum 490 nm and emission at 520 nm.

MIO-M1 cells [7] = assay: In vitro hypoxia-induced HYPDX-4-dependent fluorescence assay, MIO-M1 cells; assay type: cell-based, human; conditions: MIO-M1, 0.1% oxygen, 10 μM to 100 μM
Experimental: (§2) ARPE-19 cells were cultured in DMEM/F12 supplemented with 10% Fetal Bovine Serum, 1× GlutaMAX, and 1× Gentamicin/Amphotericin B. MIO-M1 and R28 cells were cultured in low glucose DMEM supplemented with 10% Fetal Bovine Serum, 1× GlutaMAX, and 1× Penicillin-Streptomycin. Cells were maintained in a humidified environment with 5% CO2 at 37° C. unless otherwise noted. The cells were cultured in 96 microwell plates, with HYPDX-4 concentrations ranging from 10 to 100 μM in complete medium, or 100 μM pimonidazole hydrochloride in complete medium. To establish a hypoxic environment, the cells were placed into a humidified hypoxic chamber and flushed with a mixture of 95% N2 and 5% CO2, at a flow rate of 20 L/min for 5 min according to manufacturer instructions. The chamber was clamped and placed at 37° C. for the duration of the treatment. The oxygen level was monitored using the Traceable™ Dissolved Oxygen Meter Pen (Fisher Scientific; Pittsburg, Pa.). […]
(§3) ARPE-19, MIO-M1 were seeded at 20,000 and R28 at 15,000 cells per well, respectively, in a 96-well black plate with a clear bottom. […] Fluorescence intensity was measured ([…]: 490 nm, Emission: 520 nm) using a microplate reader (Biotek; Winooski, Vt.).

ARPE-19 cells = assay: In vitro hypoxia-induced HYPDX-4-dependent fluorescence assay, ARPE-19 cells; assay type: cell-based, human; conditions: ARPE-19, 0.1% oxygen, 10 μM to 100 μM
Experimental: as §2, §3

[8] = Solubility in aqueous solvents, buffers and cell-culture medium; assay type: physicochemical; conditions: neat water or saline, PBS, DMEM with 10% FBS; read-out: soluble at a concentration
[9] = system: retinal cross sections from RA mice; assay: TUNEL assay in retinal cross sections; assay type: in vivo, mouse; conditions: retinal cross sections from treated mice, DNase I positive control
Experimental: TUNEL assays were performed using Click-iT in situ apoptosis detection kit (Life Technology, USA). The mouse eyes were enucleated and fixed by immersing in 10% NBF for 25 minutes at 4° C. Then, they were fresh frozen in 30% sucrose and embedded in TissueTec OCT for cryosectioning (7 μm sections). The retinal cross-sections were then stained for fragmented DNA by incorporating alkyne-modified EdUTP nucleotide followed by detection with Alexafluor 647 azide in apoptotic cells. Retinal cross-sections were treated with DNase I as the positive control.

R28 cells [10] = assay: In vitro hypoxia-induced HYPDX-4-dependent fluorescence assay, R28 cells; assay type: cell-based, rat
Experimental: as §2, §3

[11] = system: human Müller cells (MIO-M1); assay: Pimonidazole-adduct immunodetection of hypoxia in MIO-M1 cells; assay type: cell-based; conditions: MIO-M1, 100 μM, 4 hours
Experimental: ARPE-19 cells were cultured in DMEM/F12 supplemented with 10% Fetal Bovine Serum, 1× GlutaMAX, and 1× Gentamicin/Amphotericin B. MIO-M1 and R28 cells were cultured in low glucose DMEM supplemented with 10% Fetal Bovine Serum, 1× GlutaMAX, and 1× Penicillin-Streptomycin. Cells were maintained in a humidified environment with 5% CO2 at 37° C. unless otherwise noted. The cells were cultured in 96 microwell plates, with HYPDX-4 concentrations ranging from 10 to 100 μM in complete medium, or 100 μM pimonidazole hydrochloride in complete medium. To establish a hypoxic environment, the cells were placed into a humidified hypoxic chamber and flushed with a mixture of 95% N2 and 5% CO2, at a flow rate of 20 L/min for 5 min according to manufacturer instructions. The chamber was clamped and placed at 37° C. for the duration of the treatment. The oxygen level was monitored using the Traceable™ Dissolved Oxygen Meter Pen (Fisher Scientific; Pittsburg, Pa.). To confirm induction of hypoxia, cells were treated with 100 μM pimonidazole hydrochloride diluted in complete medium, subjected to hypoxia or normoxia for 4 hours and immunostained for pimonidazole-adducts according to manufacturer's protocol.

Experimental for physchem: A mixture of Octanol (500 uL) and water (500 uL) was added to HYPDX-4 (173 μg), or Pimonidazole Free base (742 μg) or Pimonidazole HCl (1 mL, 50 mg/mL) in an eppendorf tube and gently mixed in a rotator for 2 days. The aqueous and octanol layers were separated and the Optical Density (OD) was measured in microplate spectrophotometer instrument. The amount of HYPDX-4, Pimonidazole Free base and Pimonidazole HCl was calculated from the standard curve.

CCN1/C(=C/C=C/C=C/C2=[N+](CCCCS(=O)(=O)[O-])c3ccc4ccccc4c3C2(C)C)C(C)(C)c2cc(CC(=O)NCC3CCN(CC(O)Cn4ccnc4[N+](=O)[O-])CC3)ccc21 (stereo not drawn) [HYPDX-4]
logP at 2 days (physchem): -2.58
cell viability (BrdU incorporation) (R28 cells [1]): did not affect cell viability
ERG mean a-wave amplitudes versus vehicle (PBS) and sodium fluorescein (retina of RA mice): no significant changes in mean a-wave amplitudes
ERG mean b-wave amplitudes versus vehicle (PBS) and sodium fluorescein (retina of RA mice): no significant changes in mean b-wave amplitudes
cellular fluorescence imaging, hypoxic cells (R28 cells [2]; R28, 100 μM, 0.1% oxygen, 4 hours): Hypoxia-specific, HYPDX-4-dependent fluorescence activity
cellular fluorescence imaging, normoxic cells (R28 cells [2]; R28, normoxia): Minimal
HYPDX-4-dependent fluorescence in OIR retina ([3]; OIR pups, 60 mg/kg i.p. on P12, imaging 24 hours post-injection, central avascular retina): detected in vivo as well as ex vivo
HYPDX-4 dependent fluorescence in room air control retina ([3]; age matched RA (P13) control pups, same treatment): undetectable
retinal layers showing HYPDX-4-dependent fluorescence (hypoxia), cross sections ([3]; ex vivo retinal transverse sections from OIR pups): inner plexiform and inner nuclear layers
cell viability (BrdU incorporation) (MIO-M1 cells [4]): did not affect cell viability
HYPDX-4-dependent fluorescence in RVO retina ([5]; 60 mg/kg i.p. two hours after occlusion, imaging 22 hours post-injection): detected downstream and laterally from the occlusion
pattern of retinal hypoxia image in RVO retina [5]: more confluent image of retinal hypoxia
photostability in solution, duration [6]: at least 24 hours
HYPDX-4 dependent fluorescence, dose dependence (MIO-M1 cells [7]): optimal signal to noise ratios at the 100 μM dose
HYPDX-4 dependent fluorescence, dose dependence (ARPE-19 cells): optimal signal to noise ratios at the 100 μM dose
solubility [8]: ≥ 100 µM
retinal cell apoptosis (TUNEL) [9]: No apoptosis was observed
HYPDX-4-dependent fluorescence versus oxygen concentration (R28 cells [10]; 100 μM, oxygen 0.1% to 20.9%, 4 hours): maximal at 0.1% oxygen
HYPDX-4 dependent fluorescence, dose dependence (R28 cells [10]; R28, 0.1% oxygen, 10 μM to 100 μM): optimal signal to noise ratios at the 100 μM dose

O=[N+]([O-])c1nccn1CC(O)CN1CCCCC1 (stereo not drawn) [Pimonidazole HCl, reference compound]
logP at 2 days (physchem): -2.06
pimonidazole immunostaining of retinal hypoxia in OIR pups ([3]; 60 mg/kg i.p., ex vivo, sacrificed one hour later): confirmed
pimonidazole-adduct fluorescence, hypoxic cells ([11]; hypoxia): Significant fluorescence enhancement
pimonidazole-adduct fluorescence, normoxic cells ([11]; normoxia): minimal fluorescence signal
pattern of retinal hypoxia image in RVO retina [5]: patchy
